#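 48-hour exposure; five concentrations; linearly interpolated endpoints. The concentration for 50% growth inhibition is given as GI50. TGI marks complete inhibition of growth.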
# Tests used:
# Test in all cases: growth of human tumour cells (NCI), 48 h
# ACHN renal = test system: ACHN renal
# SW-620 colon = test system: SW-620 colon
# SNB-75 CNS = test system: SNB-75 CNS
# M14 melanoma = test system: M14 melanoma
# NCI-H226 lung = test system: NCI-H226 lung
# SF-539 CNS = test system: SF-539 CNS
# CAKI-1 renal = test system: CAKI-1 renal
# HOP-92 NSCLC = test system: HOP-92 NSCLC
# A549 NSCLC = test system: A549 NSCLC
# COLO 205 colon = test system: COLO 205 colon
Structure (SMILES),TGI (ACHN renal) [µM],TGI (SW-620 colon) [µM],TGI (SNB-75 CNS) [µM],TGI (M14 melanoma) [µM],TGI (NCI-H226 lung) [µM],TGI (SF-539 CNS) [µM],TGI (CAKI-1 renal) [µM],TGI (HOP-92 NSCLC) [µM],TGI (A549 NSCLC) [µM],TGI (COLO 205 colon) [µM],GI50 (ACHN renal) [µM],GI50 (SW-620 colon) [µM],GI50 (SNB-75 CNS) [µM],GI50 (M14 melanoma) [µM],GI50 (NCI-H226 lung) [µM],GI50 (SF-539 CNS) [µM],GI50 (CAKI-1 renal) [µM],GI50 (HOP-92 NSCLC) [µM],GI50 (A549 NSCLC) [µM],GI50 (COLO 205 colon) [µM]
CC(C)(C)c1cc(-c2c3nc(c(-c4cc(C(C)(C)C)cc(C(C)(C)C)c4)c4ccc([nH]4)c(-c4cc(C(C)(C)C)cc(C(C)(C)C)c4)c4nc(c(-c5cc(C(C)(C)C)cc(C(C)(C)C)c5)c5ccc2[nH]5)C=C4)C=C3)cc(C(C)(C)C)c1,> 100,> 100,> 100,> 100,> 100,> 100,> 100,> 100,> 100,> 100,,,,,,,,,,
CC(=O)[O][Hg][CH2]C1(C)COC(C)([CH2][Hg][O]C(C)=O)CO1 (stereo not given),2.84,3.11,34,27.4,14.2,32.6,2.42,19.1,38.4,3.15,1.5,1.51,17.7,13.6,6.16,17.7,0.805,5.62,7.79,1.47
O=C(Nc1nc(-c2ccccc2)cs1)c1cc(O)c(O)c(O)c1,56.3,37.4,> 100,44,54.8,11.9,16.6,9.66,51.4,30.1,2.47,2.66,1.92,7.9,8.08,2.77,1.42,1.56,5.62,10.8
CC1NCCc2c1[nH]c1cc(O)ccc21 (stereo not given),> 100,> 100,> 100,> 100,> 100,> 100,> 100,> 100,> 100,> 100,,,,,,,,,,
COc1ccc(Nc2ncc(-c3ccccc3)o2)cc1OC,> 25,> 25,> 25,> 25,> 25,> 25,> 25,> 25,> 25,> 25,8.59,14.9,5.09,> 22.9,> 20.6,5.34,7.02,6.04,15.2,18.4

# Source: PubChem BioAssay (NCI)
